Reference: US11208397B2, “Small molecule antagonists of sumo related modification of CRMP2 and uses thereof” (Arizona Board of Regents on Behalf of the University of …, priority 2017, dated 2021)
Entries after “also recorded” stand apart in the source; their conditions may differ. Read-outs that look alike come from different tables or passages of the source.

Assays:
Penk mRNA = test: Penk (proenkephalin) mRNA expression in cultured DRG neurons; format: cell-based; conditions: exposure 6 hr, cultured rat DRG neurons
NaV1.7 = format: cell-based, rat
other NaV1.x channels = test: Whole-cell patch clamp, other NaV1.x channels; format: cell-based
TTX-S NaV1.7 currents = format: cell-based, human
CaV2.2 = biological target: T1, CaV2.2 (Rattus norvegicus, UniProt Q02294); test: Peak CaV2.2 currents in DRGs; format: cell-based; conditions: 20 μM
T1 construct: endogenous in cells; host or cells: DRG neurons
T1 sequence (Q02294 whole entry): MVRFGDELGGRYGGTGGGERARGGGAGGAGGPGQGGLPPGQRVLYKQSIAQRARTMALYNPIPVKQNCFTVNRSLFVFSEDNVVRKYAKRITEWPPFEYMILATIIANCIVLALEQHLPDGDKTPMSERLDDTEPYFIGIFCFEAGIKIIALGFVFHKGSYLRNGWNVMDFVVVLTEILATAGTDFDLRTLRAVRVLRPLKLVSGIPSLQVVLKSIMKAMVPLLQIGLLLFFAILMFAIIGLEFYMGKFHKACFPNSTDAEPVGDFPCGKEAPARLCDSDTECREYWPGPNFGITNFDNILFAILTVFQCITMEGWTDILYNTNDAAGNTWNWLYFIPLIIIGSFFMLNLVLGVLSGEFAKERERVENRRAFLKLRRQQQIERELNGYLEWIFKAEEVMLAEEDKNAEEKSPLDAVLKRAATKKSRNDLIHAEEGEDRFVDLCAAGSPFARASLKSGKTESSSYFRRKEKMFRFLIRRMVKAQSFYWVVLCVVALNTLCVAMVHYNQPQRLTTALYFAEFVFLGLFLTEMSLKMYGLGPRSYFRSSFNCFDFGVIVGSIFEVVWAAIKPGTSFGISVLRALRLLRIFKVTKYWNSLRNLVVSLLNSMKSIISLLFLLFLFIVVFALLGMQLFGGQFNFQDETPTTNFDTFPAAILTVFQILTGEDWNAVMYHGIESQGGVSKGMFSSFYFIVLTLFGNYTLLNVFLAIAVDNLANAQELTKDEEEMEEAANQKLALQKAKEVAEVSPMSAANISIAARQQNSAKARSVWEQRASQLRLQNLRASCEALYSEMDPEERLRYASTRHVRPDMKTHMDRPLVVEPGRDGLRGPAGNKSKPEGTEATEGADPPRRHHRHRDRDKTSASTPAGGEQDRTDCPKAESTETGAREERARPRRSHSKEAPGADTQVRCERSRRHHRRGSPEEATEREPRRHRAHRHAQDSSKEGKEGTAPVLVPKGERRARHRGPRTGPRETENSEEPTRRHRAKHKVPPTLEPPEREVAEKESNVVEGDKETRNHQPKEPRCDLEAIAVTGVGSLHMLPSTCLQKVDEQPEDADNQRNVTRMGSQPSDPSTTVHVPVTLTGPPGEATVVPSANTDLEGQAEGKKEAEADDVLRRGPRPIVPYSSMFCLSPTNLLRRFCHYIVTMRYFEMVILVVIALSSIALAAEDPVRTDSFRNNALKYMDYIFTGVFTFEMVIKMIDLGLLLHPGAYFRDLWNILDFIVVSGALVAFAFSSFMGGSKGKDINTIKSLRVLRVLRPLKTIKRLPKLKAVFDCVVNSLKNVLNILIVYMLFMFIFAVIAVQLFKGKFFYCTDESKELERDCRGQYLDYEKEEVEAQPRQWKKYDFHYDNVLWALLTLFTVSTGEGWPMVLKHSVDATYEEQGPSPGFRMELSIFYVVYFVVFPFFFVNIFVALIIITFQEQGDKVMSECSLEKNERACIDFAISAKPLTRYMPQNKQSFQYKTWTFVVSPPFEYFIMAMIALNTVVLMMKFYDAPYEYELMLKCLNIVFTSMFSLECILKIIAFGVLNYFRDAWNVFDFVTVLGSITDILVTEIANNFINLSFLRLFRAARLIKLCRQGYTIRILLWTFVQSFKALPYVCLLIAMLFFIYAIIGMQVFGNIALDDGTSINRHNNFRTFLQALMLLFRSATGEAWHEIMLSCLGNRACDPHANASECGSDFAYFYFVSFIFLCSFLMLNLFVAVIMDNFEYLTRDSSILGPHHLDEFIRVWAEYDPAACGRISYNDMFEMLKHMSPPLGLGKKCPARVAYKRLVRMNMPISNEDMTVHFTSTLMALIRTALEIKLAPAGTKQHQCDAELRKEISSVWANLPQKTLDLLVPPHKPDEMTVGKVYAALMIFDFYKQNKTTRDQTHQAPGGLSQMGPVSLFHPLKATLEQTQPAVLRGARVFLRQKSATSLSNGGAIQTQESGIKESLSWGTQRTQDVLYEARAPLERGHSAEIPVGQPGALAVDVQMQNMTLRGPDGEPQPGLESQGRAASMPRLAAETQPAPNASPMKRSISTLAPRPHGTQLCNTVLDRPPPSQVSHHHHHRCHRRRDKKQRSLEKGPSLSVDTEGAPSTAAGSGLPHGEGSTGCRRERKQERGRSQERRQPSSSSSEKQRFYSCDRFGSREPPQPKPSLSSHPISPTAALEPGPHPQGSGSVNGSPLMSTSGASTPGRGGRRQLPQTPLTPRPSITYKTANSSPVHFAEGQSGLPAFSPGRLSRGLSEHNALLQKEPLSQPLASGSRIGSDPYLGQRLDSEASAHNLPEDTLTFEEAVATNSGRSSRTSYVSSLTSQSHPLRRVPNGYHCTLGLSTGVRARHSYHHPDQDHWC
T1 sequence (P54287 whole entry partner): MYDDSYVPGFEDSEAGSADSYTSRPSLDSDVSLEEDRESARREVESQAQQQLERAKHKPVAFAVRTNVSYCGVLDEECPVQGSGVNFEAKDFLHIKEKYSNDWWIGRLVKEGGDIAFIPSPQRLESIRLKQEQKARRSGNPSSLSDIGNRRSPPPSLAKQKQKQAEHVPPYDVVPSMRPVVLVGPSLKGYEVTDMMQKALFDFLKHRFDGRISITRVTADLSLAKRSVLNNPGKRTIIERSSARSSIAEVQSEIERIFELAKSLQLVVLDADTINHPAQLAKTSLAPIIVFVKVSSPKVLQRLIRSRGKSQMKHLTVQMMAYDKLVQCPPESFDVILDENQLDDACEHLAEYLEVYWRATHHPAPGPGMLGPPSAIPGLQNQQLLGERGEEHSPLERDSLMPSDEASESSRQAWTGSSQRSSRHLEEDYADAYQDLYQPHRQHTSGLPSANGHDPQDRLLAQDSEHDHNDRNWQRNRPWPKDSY
T1 sequence (P54290 25-1091 partner): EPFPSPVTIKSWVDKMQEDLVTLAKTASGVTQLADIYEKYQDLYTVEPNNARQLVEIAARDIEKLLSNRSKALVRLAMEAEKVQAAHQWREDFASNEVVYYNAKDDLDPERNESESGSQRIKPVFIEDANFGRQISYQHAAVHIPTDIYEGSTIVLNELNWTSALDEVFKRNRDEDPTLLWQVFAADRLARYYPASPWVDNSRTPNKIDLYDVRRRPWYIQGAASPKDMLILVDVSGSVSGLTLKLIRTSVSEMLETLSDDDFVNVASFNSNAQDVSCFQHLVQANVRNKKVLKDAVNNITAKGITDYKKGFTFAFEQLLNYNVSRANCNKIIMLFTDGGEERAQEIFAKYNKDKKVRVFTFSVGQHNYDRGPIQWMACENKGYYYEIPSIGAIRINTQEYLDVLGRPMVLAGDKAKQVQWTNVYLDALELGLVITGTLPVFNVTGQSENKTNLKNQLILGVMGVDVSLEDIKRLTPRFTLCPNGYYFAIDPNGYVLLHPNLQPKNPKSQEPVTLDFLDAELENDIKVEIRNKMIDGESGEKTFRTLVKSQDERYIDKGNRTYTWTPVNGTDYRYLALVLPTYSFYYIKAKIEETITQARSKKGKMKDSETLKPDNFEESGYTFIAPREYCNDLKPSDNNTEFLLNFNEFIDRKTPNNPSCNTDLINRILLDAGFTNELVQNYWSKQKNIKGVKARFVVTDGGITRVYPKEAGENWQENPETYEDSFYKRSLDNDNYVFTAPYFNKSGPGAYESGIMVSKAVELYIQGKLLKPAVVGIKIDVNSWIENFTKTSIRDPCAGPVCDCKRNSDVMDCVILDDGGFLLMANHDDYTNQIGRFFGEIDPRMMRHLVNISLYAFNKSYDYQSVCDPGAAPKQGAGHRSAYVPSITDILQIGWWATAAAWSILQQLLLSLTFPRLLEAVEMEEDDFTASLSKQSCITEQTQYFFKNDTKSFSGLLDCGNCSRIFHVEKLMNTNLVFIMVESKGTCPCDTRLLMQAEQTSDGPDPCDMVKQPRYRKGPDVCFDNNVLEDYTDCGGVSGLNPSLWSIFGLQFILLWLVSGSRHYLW

[1] = tested on: spared nerve injury (SNI) rats; test: Spared nerve injury (SNI) model of neuropathic pain; format: in vivo, rat
Protocol: FIG. 4: AZ194 reduces spared nerve injury (SNI) induced nociceptive behaviors. Rats received spared nerve injury (SNI) on the left hind paw. […] Right panel: Area under the curve (AUC), using the trapezoid method, for PWT (summary for data shown in the time course on the left) are shown. *p<0.05, one-way analysis of variance with Dunnett's post hoc analysis. Error bars represent mean±s.e.m.
AZ194 was evaluated for efficacy in the spared nerve injury (SNI) model (see, e.g., Decosterd I, & Woolf C J (2000) Pain 87: 149-158) of neuropathic pain. […] Such experiments also determined the AUC to assess effects over the full experimental duration.
Under isoflurane anesthesia (5% induction, 2.5% maintenance in 2 L/min air), skin on the lateral surface of the left hind thigh was incised. The biceps femoris muscle was bluntly dissected to expose the three terminal branches of the sciatic nerve (see, e.g., Decosterd I, & Woolf C J (2000) Pain 87: 149-158). Briefly, the common peroneal and tibial branches were tightly ligated with 4-0 silk and axotomized 2.0 mm distal to the ligation. Sham animals underwent the same operation; however the nerves were exposed and not ligated. Closure of the incision was made in two layers. The muscle was sutured once with 5-0 absorbable suture and skin was auto-clipped. Animals were allowed to recover for 5-7 days before any testing.

CRMP2 = CRMP2 (Mus musculus, UniProt O08553); test: 1D 1H STD NMR binding to CRMP2
Protocol: 1D ^1H STD NMR showing on-resonance spectrum for CRMP2 with probe AZ194. Asterisks correspond to protons. […] NMR was performed on an AVANCE III 400 Mhz specrometer equipped with a Bruker PABBO 400S1 probe and SampleJet carousel that can hold up to 96 NMR tubes. The on-resonance excitation was set at 0.81 ppm (to irradiate protein methyl groups) and off-resonance set to 30 ppm. A 15 ms spin-lock was used to suppress the protein signal, followed by the double PFG spin echo to remove residual water signal. Spectra processing and analysis were performed with Topspin3.1 and MestReNova 7.1.

Ubc9 = Ubc9 (Homo sapiens, UniProt P63279); test: 1D 1H STD NMR binding to Ubc9
Sequence of Ubc9 (P63279 whole entry, species assumed): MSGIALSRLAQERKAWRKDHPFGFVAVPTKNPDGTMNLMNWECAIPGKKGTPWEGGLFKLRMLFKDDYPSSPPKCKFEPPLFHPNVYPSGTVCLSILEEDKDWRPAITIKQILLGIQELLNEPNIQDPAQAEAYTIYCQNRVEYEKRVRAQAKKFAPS

NaV1.7 channels = test: Sodium currents of sensory neurons incubated with compound for indicated times (direct block test); format: cell-based; design: dose or concentration left out as unconfirmed; conditions: primary rat sensory neurons
Protocol: Primary rat sensory neurons were incubated for the indicated times with DMSO 0.1% or […] AZ194. Left: Bar graphs represent normalized peak sodium current density±s.e.m. from at least 14 cells per condition from 3 separate rats.*p<0.05, Kruskal-Wallis test. Middle: current voltage relationship of sodium currents from rat sensory neurons incubated for the indicated times with DMSO 0.1% or […] AZ194. Right: biophysical properties of inactivation were not altered by AZ194 at any of the time points versus control.
Primary rat sensory neurons were incubated for the indicated times with DMSO 0.1% or 5 mM AZ194.

hERG = hERG (Homo sapiens, UniProt Q12809); conditions: 20 μM, hEK293 cells; listed as ReN 194
NaV channels = test: Frequency (use)-dependent block of sodium current in DRG neurons; format: cell-based; conditions: 5 μM, thirty test pulses at 10 Hz, listed as ReN 206
Protocol: Control DRG neurons were treated with 0.03% DMSO (squares). Thirty, identical test pulses were applied at 10 Hz. The difference in available current was calculated by dividing the peak current at any given pulse (pulseN) by the peak current in response to the initial pulse (pulsei). Data are from 5-6 cells per condition.
The ability to block Na^+ currents in an activity- or use-dependent manner is a useful property for drugs since it allows for preferential decreases in sodium channel availability during high—(i.e., hyperexcitable ‘pain’ neurons) but not low-frequency firing.

SMILES | Penk mRNA (proenkephalin), normalized to L27 ribosomal RNA (Penk mRNA) | inhibition of NaV1.7 (concentration-response curve) (NaV1.7) | effect on other NaV1.x channels (other NaV1.x channels) | effect on other NaV1.x channels (other NaV1.x channels; highest concentration of 20 μM) | reduction of TTX-S NaV1.7 currents (TTX-S NaV1.7 currents) | effect on peak CaV2.2 currents (CaV2.2) | effect on peak CaV2.2 currents (CaV2.2; listed as ReN 194) | paw withdrawal thresholds (PWTs) ([1]; intrathecal injection 0.5 μg/5 μl) | area under the curve (AUC) for PWT ([1]; spinal administration, full experimental duration) | binding to CRMP2 (STD NMR) (CRMP2) | binding to Ubc9 (STD NMR) (Ubc9) | biophysical properties of inactivation (NaV1.7 channels; any time point versus control) | direct block of NaV1.7 channels (normalized peak sodium current density) (NaV1.7 channels; indicated incubation times) | effect on hERG K+ currents (hERG) | frequency (use)-dependent decrease in current amplitude (NaV channels)
COc1cc(C(=O)N2CCC(c3nc4ccccc4n3Cc3cccc(F)c3)CC2)ccc1OCc1cccc(F)c1 [AZ194, (4-(1-(3-fluorobenzyl)-1H-benzo[d]imidazol-2-yl)piperidin-1-yl)(4-((3-fluorobenzyl)oxy)-3-methoxyphenyl)methanone] | upregulates; also recorded: increased | nanomolar potency | not affected | no inhibition | ~66% | no inhibition | did not affect | significantly increased; also recorded: significantly reversed | reversal of mechanical allodynia | binds | No binding was observed | not altered | does not directly block | did not affect | 
Fc1ccc(Oc2ccc(CN3CCC(c4nc5ccccc5[nH]4)CC3)cc2)cc1 [AZ206, 2-(1-(4-(4-fluorophenoxy)benzyl)piperidin-4-yl)-1H-benzo[d]imidazole] |  |  |  |  |  |  |  |  |  |  |  |  |  |  | use-dependent inhibitor; also recorded: decrease in current amplitude
COc1cc(C(=O)N2CCC(c3nc4ccccc4n3Cc3cccc(F)c3)CC2)ccc1OCc1cccc(F)c1 [drawing 20] | upregulation |  |  |  |  |  |  |  |  |  |  |  |  |  | 
